Test results reported in US9085598B2, “Compounds targeting the cell invasion protein complex, their pharmaceutical compositions and methods of use thereof” (THE ROYAL INSTITUTE FOR THE ADVANCEMENT OF LEARNING/MCGILL …, priority 2011, dated 2015).

Legend:
Assay in all cases: In vitro kinase activity (Kinase-Glo luminescence)
Type in all cases: biochemical
IGF1R = biological target: T1, IGF1R (Homo sapiens, UniProt P08069)
T1 construct: Human recombinant full-length kinases were incubated in kinase buffer
Protocol: (§1) Human recombinant full-length kinases were incubated in kinase buffer containing ATP and substrate (Poly Glu:Tyr) for 4 hours at room temperature with or without the presence of the compounds listed in Table 1 at various concentrations. Remaining ATP in solution was then quantified using the Kinase-Glo-Iuminescence™ kit (Promega).

P38-γ = biological target: T2, P38-γ (Homo sapiens, UniProt P53778)
T2 construct: Human recombinant full-length kinases were incubated in kinase buffer
T2 sequence (P53778 whole entry): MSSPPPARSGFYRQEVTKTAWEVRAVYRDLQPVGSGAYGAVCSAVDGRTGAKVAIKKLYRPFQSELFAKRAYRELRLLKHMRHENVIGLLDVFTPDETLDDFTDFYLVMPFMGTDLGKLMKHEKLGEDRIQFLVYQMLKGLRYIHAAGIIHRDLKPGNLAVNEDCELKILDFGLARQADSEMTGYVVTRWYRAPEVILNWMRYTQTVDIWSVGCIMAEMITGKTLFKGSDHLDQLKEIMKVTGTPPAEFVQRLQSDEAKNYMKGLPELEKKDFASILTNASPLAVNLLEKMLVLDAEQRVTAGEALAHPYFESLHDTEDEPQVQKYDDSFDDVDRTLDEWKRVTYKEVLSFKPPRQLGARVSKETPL
Protocol: as §1

PLK4 = biological target: T3, PLK4 (Homo sapiens, UniProt O00444)
T3 construct: Human recombinant full-length kinases were incubated in kinase buffer
Protocol: as §1

IKK-ε = biological target: T4, IKK-ε (Homo sapiens, UniProt Q14164)
T4 construct: Human recombinant full-length kinases were incubated in kinase buffer
T4 sequence (Q14164 whole entry): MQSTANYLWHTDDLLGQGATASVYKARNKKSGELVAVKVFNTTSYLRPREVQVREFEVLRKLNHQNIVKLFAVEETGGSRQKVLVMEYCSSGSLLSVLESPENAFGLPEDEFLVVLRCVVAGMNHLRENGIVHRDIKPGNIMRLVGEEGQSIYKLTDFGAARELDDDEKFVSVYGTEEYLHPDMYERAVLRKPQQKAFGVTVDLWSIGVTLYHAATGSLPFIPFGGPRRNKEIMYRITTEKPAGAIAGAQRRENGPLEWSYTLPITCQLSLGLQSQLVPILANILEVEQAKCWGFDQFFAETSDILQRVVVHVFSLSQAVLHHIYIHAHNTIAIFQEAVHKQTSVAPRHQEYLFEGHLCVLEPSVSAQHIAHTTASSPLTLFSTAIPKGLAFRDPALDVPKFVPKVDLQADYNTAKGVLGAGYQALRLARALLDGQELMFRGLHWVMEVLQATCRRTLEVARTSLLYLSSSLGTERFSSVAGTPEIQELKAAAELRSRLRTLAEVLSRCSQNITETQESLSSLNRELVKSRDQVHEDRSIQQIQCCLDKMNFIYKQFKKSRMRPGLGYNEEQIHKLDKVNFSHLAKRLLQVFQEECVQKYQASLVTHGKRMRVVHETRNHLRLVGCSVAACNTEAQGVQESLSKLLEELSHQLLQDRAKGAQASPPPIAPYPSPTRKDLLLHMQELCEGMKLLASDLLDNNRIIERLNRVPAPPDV
Protocol: as §1

PKC-α = biological target: T5, PKC-α (Homo sapiens, UniProt P17252); details: Table 2
T5 construct: Human recombinant full-length kinases were incubated in kinase buffer
Protocol: as §1

FAK = biological target: T6, FAK (Homo sapiens, UniProt Q05397); details: 1 μM; Table 2; read-out: % Inhibition FAK
T6 construct: Human recombinant full-length kinases were incubated in kinase buffer
Protocol: as §1

INSR = biological target: T7, INSR (Homo sapiens, UniProt P06213)
T7 construct: Human recombinant full-length kinases were incubated in kinase buffer
Protocol: as §1

CDK1/Cyclin B = biological target: T8, CDK1/Cyclin B (Homo sapiens, UniProt P06493)
T8 construct: Human recombinant full-length kinases were incubated in kinase buffer
T8 sequence (P06493 whole entry): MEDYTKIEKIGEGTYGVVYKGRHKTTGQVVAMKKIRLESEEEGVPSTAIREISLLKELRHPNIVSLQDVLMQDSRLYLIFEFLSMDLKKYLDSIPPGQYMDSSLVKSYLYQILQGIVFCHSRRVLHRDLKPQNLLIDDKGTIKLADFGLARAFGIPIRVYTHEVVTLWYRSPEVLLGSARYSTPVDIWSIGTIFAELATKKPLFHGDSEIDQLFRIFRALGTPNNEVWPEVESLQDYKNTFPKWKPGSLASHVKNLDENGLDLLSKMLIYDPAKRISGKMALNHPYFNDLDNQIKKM
T8 sequence (P14635 whole entry partner): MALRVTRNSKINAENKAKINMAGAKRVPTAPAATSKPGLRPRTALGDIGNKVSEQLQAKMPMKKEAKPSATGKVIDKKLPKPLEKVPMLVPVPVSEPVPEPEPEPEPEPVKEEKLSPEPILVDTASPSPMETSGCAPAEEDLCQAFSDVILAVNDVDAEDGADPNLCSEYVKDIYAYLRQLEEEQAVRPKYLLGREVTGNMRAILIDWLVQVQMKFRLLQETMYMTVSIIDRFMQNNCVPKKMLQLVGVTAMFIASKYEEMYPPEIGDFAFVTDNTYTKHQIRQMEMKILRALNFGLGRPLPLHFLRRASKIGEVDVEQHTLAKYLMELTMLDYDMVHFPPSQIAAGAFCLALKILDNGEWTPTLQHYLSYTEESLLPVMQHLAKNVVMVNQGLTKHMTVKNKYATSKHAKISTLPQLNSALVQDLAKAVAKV
Protocol: as §1

TIE1 = biological target: T9, TIE1 (Homo sapiens, UniProt P35590)
T9 construct: Human recombinant full-length kinases were incubated in kinase buffer
Protocol: as §1

FLT3 = biological target: T10, FLT3 (Homo sapiens, UniProt P36888)
T10 construct: Human recombinant full-length kinases were incubated in kinase buffer
Protocol: as §1

LYN = biological target: T11, LYN (Homo sapiens, UniProt P07948)
T11 construct: Human recombinant full-length kinases were incubated in kinase buffer
T11 sequence (P07948 whole entry): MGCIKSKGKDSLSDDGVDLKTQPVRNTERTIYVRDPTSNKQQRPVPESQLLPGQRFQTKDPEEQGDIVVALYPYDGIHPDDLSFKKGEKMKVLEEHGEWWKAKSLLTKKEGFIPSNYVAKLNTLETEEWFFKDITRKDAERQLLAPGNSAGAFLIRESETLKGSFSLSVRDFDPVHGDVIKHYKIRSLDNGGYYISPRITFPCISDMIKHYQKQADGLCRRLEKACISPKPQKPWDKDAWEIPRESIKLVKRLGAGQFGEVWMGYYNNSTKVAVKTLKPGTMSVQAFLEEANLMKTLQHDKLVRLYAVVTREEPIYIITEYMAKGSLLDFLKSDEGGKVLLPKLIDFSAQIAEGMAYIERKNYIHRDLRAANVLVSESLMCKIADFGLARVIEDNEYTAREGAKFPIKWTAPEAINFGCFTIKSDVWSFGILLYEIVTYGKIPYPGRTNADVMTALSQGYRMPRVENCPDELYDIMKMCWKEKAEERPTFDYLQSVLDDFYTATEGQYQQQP
Protocol: as §1

DDR1 = biological target: T12, DDR1 (Homo sapiens, UniProt Q08345)
T12 construct: Human recombinant full-length kinases were incubated in kinase buffer
Protocol: as §1

SYK = biological target: T13, SYK (Homo sapiens, UniProt P43405)
T13 construct: Human recombinant full-length kinases were incubated in kinase buffer
Protocol: as §1

EPHA1 = biological target: T14, EPHA1 (Homo sapiens, UniProt P21709)
T14 construct: Human recombinant full-length kinases were incubated in kinase buffer
Protocol: as §1

AKT-1 = biological target: T15, AKT-1 (Homo sapiens, UniProt P31749); details: Table 2
T15 construct: Human recombinant full-length kinases were incubated in kinase buffer
Protocol: as §1

PIM1 = biological target: T16, PIM1 (Homo sapiens, UniProt P11309)
T16 construct: Human recombinant full-length kinases were incubated in kinase buffer
Protocol: as §1

HER2 = biological target: T17, HER2 (Homo sapiens, UniProt P04626)
T17 construct: Human recombinant full-length kinases were incubated in kinase buffer
Protocol: as §1

FGFR1 = biological target: T18, FGFR1 (Homo sapiens, UniProt P11362)
T18 construct: Human recombinant full-length kinases were incubated in kinase buffer
T18 sequence (P11362 22-822): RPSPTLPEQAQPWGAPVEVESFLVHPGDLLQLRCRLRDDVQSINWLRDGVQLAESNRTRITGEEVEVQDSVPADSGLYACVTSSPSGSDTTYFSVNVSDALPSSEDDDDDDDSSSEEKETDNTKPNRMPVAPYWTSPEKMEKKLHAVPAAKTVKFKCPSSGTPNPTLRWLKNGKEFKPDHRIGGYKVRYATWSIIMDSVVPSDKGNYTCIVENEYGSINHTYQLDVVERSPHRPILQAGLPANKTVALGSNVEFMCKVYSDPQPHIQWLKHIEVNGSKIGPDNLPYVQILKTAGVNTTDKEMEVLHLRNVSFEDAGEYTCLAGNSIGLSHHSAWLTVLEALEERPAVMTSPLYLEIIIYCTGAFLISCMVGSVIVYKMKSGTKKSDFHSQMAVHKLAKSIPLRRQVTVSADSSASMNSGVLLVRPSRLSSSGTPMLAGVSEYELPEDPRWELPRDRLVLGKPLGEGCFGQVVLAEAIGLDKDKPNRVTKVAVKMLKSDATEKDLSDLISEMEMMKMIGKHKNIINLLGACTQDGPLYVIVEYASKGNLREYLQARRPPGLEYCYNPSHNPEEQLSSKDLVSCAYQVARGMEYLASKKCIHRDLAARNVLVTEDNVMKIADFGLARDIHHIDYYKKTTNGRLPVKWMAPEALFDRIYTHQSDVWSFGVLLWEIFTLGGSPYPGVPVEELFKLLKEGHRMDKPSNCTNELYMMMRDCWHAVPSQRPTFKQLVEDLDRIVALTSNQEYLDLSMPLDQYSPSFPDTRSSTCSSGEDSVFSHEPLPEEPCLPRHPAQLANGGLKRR
Protocol: as §1

RPS6KA4 = biological target: T19, RPS6KA4 (Homo sapiens, UniProt O75676)
T19 construct: Human recombinant full-length kinases were incubated in kinase buffer
Protocol: as §1

YES1 = biological target: T20, YES1 (Homo sapiens, UniProt P07947)
T20 construct: Human recombinant full-length kinases were incubated in kinase buffer
Protocol: as §1

SGK3 = biological target: T21, SGK3 (Homo sapiens, UniProt Q96BR1)
T21 construct: Human recombinant full-length kinases were incubated in kinase buffer
Protocol: as §1

PDGFR-β = biological target: T22, PDGFR-β (Homo sapiens, UniProt P09619)
T22 construct: Human recombinant full-length kinases were incubated in kinase buffer
Protocol: as §1

FYN = biological target: T23, FYN (Homo sapiens, UniProt P06241)
T23 construct: Human recombinant full-length kinases were incubated in kinase buffer
T23 sequence (P06241 whole entry): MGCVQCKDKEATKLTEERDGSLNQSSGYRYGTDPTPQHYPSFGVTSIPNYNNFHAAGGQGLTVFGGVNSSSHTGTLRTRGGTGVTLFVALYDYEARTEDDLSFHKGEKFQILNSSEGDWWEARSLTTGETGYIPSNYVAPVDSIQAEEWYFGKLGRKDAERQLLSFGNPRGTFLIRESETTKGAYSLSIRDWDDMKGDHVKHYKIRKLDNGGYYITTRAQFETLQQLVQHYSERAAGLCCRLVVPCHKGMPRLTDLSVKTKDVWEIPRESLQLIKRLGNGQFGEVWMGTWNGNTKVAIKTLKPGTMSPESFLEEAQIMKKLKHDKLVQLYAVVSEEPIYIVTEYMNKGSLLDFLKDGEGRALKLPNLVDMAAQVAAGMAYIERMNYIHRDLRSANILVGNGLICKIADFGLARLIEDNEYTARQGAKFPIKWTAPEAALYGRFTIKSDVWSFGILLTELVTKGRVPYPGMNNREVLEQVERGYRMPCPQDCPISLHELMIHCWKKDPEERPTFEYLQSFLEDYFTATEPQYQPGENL
Protocol: as §1

PAK1 = biological target: T24, PAK1 (Homo sapiens, UniProt Q13153)
T24 construct: Human recombinant full-length kinases were incubated in kinase buffer
Protocol: as §1

VEGFR2 = biological target: T25, VEGFR2 (Homo sapiens, UniProt P35968)
T25 construct: Human recombinant full-length kinases were incubated in kinase buffer
Protocol: as §1

Aurora A = biological target: T26, Aurora A (Homo sapiens, UniProt O14965)
T26 construct: Human recombinant full-length kinases were incubated in kinase buffer
Protocol: as §1

MET = biological target: T27, MET (Homo sapiens, UniProt P08581)
T27 construct: Human recombinant full-length kinases were incubated in kinase buffer
Protocol: as §1

TRKB = biological target: T28, TRKB (Homo sapiens, UniProt Q16620)
T28 construct: Human recombinant full-length kinases were incubated in kinase buffer
Protocol: as §1

Aurora B = biological target: T29, Aurora B (Homo sapiens, UniProt Q96GD4)
T29 construct: Human recombinant full-length kinases were incubated in kinase buffer
Protocol: as §1

ABL1 = biological target: T30, ABL1 (Homo sapiens, UniProt P00519)
T30 construct: Human recombinant full-length kinases were incubated in kinase buffer
Protocol: as §1

SRC = biological target: T31, SRC (Homo sapiens, UniProt P12931)
T31 construct: Human recombinant full-length kinases were incubated in kinase buffer
Protocol: as §1

EGFR = biological target: T32, EGFR (Homo sapiens, UniProt P00533)
T32 construct: Human recombinant full-length kinases were incubated in kinase buffer
T32 sequence (P00533 25-1210): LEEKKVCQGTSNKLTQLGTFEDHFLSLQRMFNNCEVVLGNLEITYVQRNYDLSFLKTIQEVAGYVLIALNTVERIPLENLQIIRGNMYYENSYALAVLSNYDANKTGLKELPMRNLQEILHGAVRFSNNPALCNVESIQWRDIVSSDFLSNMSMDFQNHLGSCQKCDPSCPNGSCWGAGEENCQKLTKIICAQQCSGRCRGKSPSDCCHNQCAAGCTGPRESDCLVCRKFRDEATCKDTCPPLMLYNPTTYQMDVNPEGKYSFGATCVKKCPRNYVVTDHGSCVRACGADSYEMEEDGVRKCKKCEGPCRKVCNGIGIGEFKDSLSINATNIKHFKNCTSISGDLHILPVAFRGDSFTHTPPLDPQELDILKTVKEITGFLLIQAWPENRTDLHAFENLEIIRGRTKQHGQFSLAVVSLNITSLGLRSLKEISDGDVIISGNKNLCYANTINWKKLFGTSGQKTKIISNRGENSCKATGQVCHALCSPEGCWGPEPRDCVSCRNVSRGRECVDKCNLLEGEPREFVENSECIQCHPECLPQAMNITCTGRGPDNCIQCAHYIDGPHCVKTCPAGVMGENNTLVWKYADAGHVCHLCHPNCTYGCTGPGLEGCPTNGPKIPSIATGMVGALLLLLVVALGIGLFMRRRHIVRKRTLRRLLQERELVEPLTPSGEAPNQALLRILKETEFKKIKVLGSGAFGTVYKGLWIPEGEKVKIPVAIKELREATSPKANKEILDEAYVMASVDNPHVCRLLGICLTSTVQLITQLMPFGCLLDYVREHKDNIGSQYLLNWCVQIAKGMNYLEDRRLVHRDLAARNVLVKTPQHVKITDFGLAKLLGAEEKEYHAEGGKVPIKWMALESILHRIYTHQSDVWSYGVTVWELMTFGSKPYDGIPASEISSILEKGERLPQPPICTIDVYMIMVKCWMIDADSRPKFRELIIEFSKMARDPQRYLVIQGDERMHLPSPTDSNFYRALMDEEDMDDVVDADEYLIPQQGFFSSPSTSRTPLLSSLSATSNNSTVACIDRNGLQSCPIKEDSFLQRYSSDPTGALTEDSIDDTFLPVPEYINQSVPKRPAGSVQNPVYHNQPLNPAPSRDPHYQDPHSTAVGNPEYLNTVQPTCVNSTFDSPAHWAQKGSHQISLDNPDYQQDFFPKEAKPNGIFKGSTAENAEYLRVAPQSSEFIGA
Protocol: as §1

O=c1c2ccccc2[se]n1-c1ccccc1 [Ebselen, reference compound]
inhibition at 1 µM (IGF1R): 0%
inhibition at 1 µM (P38-γ): 0%
inhibition at 1 µM (PLK4): 0%
inhibition at 1 µM (IKK-ε): 0%
inhibition at 1 µM (PKC-α): 25%
inhibition at 1 µM (FAK): 1%
inhibition at 1 µM (INSR): 0%
inhibition at 1 µM (CDK1/Cyclin B): 0%
inhibition at 1 µM (TIE1): 0%
inhibition at 1 µM (FLT3): 0%
inhibition at 1 µM (LYN): 0%
inhibition at 1 µM (DDR1): 0%
inhibition at 1 µM (SYK): 0%
inhibition at 1 µM (EPHA1): 0%
inhibition at 1 µM (AKT-1): 22%
inhibition at 1 µM (PIM1): 0%
inhibition at 1 µM (HER2): 0%
inhibition at 1 µM (FGFR1): 0%
inhibition at 1 µM (RPS6KA4): 0%
inhibition at 1 µM (YES1): 0%
inhibition at 1 µM (SGK3): 0%
inhibition at 1 µM (PDGFR-β): 0%
inhibition at 1 µM (FYN): 0%
inhibition at 1 µM (PAK1): 0%
inhibition at 1 µM (VEGFR2): 0%
inhibition at 1 µM (Aurora A): 0%
inhibition at 1 µM (MET): 0%
inhibition at 1 µM (TRKB): 0%
inhibition at 1 µM (Aurora B): 0%
inhibition at 1 µM (ABL1): 0%
inhibition at 1 µM (SRC): 0%
inhibition at 1 µM (EGFR): 0%
